Data: ChEMBL document CHEMBL1201862, “PubChem BioAssay data set” (2004)
Calls of active or inactive are those of the source.

Tests used:
[1] = target: T1, Serine/threonine-protein phosphatase (Homo sapiens, UniProt Q9BPW0); experiment: PP5 phosphatase inhibitors, dose response, biochemical, fluorescence (AID 2395)
T1 sequence (Q9BPW0 whole entry): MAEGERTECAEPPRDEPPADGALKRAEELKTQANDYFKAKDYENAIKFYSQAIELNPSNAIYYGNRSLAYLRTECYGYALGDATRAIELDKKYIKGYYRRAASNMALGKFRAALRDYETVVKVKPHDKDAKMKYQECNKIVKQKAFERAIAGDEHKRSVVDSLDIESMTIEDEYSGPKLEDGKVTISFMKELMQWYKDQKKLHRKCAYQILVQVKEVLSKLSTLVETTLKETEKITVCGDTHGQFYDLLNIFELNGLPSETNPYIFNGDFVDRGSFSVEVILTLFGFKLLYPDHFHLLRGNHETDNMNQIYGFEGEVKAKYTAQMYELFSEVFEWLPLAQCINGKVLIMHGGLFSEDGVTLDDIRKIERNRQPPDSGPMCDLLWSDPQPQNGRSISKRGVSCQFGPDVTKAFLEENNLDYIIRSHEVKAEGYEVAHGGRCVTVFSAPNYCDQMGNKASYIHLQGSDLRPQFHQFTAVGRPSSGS

[2] = target: T2, Sentrin-specific protease 7 (Homo sapiens, UniProt Q9BQF6); type: functional;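 further: Luminescence-based dose-response confirmation of ultra-high-throughput screening hits, measuring inhibition of SENP7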
T2 sequence (Q9BQF6 whole entry): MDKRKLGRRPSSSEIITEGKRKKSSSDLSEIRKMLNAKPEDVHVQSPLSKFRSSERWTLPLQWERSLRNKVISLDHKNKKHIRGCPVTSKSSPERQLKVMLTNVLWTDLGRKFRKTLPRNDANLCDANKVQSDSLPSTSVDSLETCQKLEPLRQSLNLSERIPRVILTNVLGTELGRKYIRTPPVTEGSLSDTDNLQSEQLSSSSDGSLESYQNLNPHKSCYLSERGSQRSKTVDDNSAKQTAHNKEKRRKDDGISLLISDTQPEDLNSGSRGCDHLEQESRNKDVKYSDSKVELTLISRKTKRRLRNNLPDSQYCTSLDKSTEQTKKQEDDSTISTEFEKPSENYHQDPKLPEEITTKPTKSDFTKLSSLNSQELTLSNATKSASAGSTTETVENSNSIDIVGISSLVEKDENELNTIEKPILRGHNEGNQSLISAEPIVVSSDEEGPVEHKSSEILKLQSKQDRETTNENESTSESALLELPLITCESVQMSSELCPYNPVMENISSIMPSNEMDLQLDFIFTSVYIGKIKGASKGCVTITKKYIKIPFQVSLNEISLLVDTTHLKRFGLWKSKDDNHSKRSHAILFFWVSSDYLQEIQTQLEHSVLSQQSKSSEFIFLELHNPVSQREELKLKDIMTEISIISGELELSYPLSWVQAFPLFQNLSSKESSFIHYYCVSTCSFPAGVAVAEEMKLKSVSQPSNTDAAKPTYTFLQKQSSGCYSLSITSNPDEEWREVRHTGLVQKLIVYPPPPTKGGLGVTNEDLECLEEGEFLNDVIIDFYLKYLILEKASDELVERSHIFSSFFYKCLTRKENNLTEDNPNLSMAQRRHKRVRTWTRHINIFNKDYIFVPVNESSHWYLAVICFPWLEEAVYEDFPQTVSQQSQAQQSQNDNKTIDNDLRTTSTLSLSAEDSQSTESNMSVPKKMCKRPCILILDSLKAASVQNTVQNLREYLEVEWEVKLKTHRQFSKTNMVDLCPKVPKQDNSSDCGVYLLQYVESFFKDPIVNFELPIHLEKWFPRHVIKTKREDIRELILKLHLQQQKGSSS

Vero = Vero cell cytotoxicity, cytotoxicity control for flavivirus capping enzyme inhibitors (AID 588742); type: functional; details: Chlorocebus sabaeus
[3] = target: ATP-dependent molecular chaperone HSP82 (Candida albicans (strain WO-1) (Yeast), UniProt C4YTQ8); experiment: loss of DOC-induced GRE-beta-galactosidase reporter signal, dose response, Hsp90 inhibitor project, S. cerevisiae, luminescence (AID 2400); type: functional, cell-based;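 further: beta-galactosidase luminescence from glucocorticoid response element reporter as proxy for Hsp90 function; inhibitor potency where signal loss means Hsp90 inhibition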
Sequence of ATP-dependent molecular chaperone HSP82 (C4YTQ8 whole entry): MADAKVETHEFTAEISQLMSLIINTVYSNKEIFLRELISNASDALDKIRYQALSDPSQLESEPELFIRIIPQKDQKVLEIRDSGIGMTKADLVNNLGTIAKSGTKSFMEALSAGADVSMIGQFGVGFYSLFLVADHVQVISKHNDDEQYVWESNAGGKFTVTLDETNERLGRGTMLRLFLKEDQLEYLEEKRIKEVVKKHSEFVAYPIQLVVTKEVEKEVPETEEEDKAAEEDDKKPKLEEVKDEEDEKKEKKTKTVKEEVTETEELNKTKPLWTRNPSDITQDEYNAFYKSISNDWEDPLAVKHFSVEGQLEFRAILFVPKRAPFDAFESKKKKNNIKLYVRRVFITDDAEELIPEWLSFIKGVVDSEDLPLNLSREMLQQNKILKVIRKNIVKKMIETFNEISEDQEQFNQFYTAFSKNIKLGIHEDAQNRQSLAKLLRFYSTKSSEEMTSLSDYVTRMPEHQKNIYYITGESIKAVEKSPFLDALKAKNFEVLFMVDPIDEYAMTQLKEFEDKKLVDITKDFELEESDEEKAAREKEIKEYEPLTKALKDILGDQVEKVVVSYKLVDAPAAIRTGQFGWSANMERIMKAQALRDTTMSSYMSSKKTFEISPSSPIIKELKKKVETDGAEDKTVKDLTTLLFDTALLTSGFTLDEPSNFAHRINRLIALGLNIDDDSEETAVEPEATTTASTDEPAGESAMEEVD

BJ [4] = experiment: cells; type: functional, cell-based; details: Homo sapiens
Jurkat = experiment: SAR Analysis of small molecule inhibitors of T-cell specific antigen receptor-induced NF-kB activation in a Jurkat cell line using a luminescence assay - Set 2. [Related pubchem assays (depositor defined):AID435003, AID435012, AID465]; type: functional, cell-based; details: Homo sapiens
BJ [5] = experiment: cytotoxicity toward BJ-TERT fibroblasts, dose response, cell-based, RAS-independent, luminescence (AID 1933); type: functional; details: Homo sapiens
Aminopeptidase N = target: T3, Aminopeptidase N (Plasmodium falciparum FcB1/Columbia, UniProt O96935); experiment: P. falciparum M1AAP inhibitors, biochemical, fluorogenic H-Leu-NHMec substrate, 1536-well (AID 1445); design: species or system Plasmodium falciparum 3D7, 3D7
T3 sequence (O96935 whole entry): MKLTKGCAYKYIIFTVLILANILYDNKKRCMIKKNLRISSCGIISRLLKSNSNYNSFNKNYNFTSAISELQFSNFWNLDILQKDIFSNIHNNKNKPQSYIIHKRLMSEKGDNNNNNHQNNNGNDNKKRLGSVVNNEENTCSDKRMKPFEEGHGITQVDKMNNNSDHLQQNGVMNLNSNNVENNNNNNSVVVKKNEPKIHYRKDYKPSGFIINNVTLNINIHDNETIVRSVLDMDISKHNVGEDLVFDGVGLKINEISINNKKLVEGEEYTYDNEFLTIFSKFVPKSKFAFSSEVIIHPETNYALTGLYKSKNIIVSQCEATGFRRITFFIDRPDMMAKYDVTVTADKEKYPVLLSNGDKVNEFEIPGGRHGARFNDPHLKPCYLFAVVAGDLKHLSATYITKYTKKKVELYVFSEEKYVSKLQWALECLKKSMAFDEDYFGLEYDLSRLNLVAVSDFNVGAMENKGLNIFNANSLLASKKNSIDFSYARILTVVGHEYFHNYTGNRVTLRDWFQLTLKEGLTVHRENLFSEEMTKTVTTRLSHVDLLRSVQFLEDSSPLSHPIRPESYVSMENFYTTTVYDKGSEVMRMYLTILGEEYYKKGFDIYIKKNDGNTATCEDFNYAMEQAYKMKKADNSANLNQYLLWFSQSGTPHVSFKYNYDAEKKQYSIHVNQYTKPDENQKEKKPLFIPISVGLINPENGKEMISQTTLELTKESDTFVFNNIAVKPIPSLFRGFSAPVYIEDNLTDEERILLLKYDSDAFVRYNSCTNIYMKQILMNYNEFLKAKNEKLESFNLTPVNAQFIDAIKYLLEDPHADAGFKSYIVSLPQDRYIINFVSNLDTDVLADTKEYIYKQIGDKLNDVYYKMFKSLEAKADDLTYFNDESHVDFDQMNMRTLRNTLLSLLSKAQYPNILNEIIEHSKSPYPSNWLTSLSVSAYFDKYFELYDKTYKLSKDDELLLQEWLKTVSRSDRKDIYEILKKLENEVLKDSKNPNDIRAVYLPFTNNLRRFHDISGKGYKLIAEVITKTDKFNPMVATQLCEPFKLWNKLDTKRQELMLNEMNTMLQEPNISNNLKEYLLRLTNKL

N#Cc1c(N2CCCCC2)nc(N)c2c(N)nc(SCC(=O)O)cc12
IC50 [1]: > 7.45 µM (active)
IC50 [2]: 11.8 µM (active)

CCc1ccc(S(=O)(=O)Nc2cc(SCC(=O)O)c(O)c3ccccc23)cc1
CC50 (Vero): 33.6 µM (active)

CCCC(=O)NC(c1ccc(C(C)C)cc1)c1ccc2cccnc2c1O (stereo not drawn)
EC50 [3]: > 160 µM (inactive)
EC50 (BJ [4]): 2.91 µM (active)
IC50 (Jurkat): 2.58 µM (active)
EC50 (BJ [5]): 2.3 µM (active)

Oc1c(Cl)cc(Cl)c(Cl)c1Cc1c(O)c(Cl)cc(Cl)c1Cl [HEXACHLOROPHENE]
IC50 (Aminopeptidase N): 58 µM (active)
